Reference: patent US8178668B2, “2-aminopyridine kinase inhibitors” (OSI Pharmaceuticals, LLC, priority 2008, dated 2012)

Columns and labels:
RON (human) = RON (human) (Homo sapiens, UniProt Q04912); assay: RON kinase AlphaScreen assay (Km of ATP); type: biochemical; settings: ATP at Km; at least duplicate experiments
Method in brief: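 AlphaScreen with PT66 donor/acceptor beads, read after 1 h, detected phosphorylation of biotinylated poly(Glu,Tyr) by human RON. Enzyme-started reactions ran 30 min at room temperature with ATP at Km. Buffer was HEPES pH 7.4 with MgCl2, glycerol, vanadate and 1% DMSO.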

MET (human) = MET (human) (Homo sapiens, UniProt P08581); assay: MET kinase AlphaScreen assay (Km of ATP); type: biochemical; settings: ATP at Km; at least duplicate experiments
Method in brief: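 AlphaScreen detection with PT66 beads (1 h) follows a 60 min room-temperature MET reaction. Substrate is 200 ng/μL biotinylated poly(Glu,Tyr), with ATP set at an enzyme-optimized concentration. Buffer is HEPES pH 7.4 with MgCl2, MnCl2 and 0.334 mM vanadate, compounds at 1% DMSO.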

RON (human), sequence (Q04912 25-1400): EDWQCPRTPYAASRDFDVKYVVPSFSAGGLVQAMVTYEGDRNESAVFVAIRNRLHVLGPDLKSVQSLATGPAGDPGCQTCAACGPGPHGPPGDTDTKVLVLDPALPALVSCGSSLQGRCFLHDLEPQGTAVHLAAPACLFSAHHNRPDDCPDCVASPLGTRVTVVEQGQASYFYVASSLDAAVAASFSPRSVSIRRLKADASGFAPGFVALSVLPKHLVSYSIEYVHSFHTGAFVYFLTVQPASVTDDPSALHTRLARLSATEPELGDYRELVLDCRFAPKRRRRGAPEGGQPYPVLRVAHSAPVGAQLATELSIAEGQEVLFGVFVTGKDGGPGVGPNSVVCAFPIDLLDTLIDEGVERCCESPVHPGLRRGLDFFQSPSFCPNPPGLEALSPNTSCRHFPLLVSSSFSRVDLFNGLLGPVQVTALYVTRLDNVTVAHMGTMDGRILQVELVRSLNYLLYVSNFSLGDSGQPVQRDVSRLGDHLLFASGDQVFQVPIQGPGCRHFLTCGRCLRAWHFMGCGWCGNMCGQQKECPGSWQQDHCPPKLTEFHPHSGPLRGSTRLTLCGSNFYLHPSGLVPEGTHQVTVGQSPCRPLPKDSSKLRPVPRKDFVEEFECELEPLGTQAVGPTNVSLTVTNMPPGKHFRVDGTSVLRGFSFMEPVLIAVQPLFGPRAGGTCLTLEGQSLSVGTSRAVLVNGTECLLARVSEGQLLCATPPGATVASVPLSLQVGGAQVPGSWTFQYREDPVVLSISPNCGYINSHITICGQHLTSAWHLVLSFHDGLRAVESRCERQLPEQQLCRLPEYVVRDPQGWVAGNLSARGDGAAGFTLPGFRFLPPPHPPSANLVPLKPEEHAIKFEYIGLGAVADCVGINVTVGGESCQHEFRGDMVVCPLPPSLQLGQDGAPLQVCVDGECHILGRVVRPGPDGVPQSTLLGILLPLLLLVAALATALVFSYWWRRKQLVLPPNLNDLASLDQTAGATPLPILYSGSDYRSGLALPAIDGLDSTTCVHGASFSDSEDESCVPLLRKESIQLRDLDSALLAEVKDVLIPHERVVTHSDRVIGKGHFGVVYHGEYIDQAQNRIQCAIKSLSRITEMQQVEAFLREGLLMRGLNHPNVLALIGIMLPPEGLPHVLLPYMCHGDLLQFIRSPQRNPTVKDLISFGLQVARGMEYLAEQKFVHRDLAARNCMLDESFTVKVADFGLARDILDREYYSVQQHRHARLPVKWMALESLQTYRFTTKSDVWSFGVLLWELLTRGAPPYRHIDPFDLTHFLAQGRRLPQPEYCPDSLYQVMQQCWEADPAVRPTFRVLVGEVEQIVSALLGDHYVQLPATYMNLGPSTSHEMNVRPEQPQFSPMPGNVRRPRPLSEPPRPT
MET (human), sequence (P08581 25-1390): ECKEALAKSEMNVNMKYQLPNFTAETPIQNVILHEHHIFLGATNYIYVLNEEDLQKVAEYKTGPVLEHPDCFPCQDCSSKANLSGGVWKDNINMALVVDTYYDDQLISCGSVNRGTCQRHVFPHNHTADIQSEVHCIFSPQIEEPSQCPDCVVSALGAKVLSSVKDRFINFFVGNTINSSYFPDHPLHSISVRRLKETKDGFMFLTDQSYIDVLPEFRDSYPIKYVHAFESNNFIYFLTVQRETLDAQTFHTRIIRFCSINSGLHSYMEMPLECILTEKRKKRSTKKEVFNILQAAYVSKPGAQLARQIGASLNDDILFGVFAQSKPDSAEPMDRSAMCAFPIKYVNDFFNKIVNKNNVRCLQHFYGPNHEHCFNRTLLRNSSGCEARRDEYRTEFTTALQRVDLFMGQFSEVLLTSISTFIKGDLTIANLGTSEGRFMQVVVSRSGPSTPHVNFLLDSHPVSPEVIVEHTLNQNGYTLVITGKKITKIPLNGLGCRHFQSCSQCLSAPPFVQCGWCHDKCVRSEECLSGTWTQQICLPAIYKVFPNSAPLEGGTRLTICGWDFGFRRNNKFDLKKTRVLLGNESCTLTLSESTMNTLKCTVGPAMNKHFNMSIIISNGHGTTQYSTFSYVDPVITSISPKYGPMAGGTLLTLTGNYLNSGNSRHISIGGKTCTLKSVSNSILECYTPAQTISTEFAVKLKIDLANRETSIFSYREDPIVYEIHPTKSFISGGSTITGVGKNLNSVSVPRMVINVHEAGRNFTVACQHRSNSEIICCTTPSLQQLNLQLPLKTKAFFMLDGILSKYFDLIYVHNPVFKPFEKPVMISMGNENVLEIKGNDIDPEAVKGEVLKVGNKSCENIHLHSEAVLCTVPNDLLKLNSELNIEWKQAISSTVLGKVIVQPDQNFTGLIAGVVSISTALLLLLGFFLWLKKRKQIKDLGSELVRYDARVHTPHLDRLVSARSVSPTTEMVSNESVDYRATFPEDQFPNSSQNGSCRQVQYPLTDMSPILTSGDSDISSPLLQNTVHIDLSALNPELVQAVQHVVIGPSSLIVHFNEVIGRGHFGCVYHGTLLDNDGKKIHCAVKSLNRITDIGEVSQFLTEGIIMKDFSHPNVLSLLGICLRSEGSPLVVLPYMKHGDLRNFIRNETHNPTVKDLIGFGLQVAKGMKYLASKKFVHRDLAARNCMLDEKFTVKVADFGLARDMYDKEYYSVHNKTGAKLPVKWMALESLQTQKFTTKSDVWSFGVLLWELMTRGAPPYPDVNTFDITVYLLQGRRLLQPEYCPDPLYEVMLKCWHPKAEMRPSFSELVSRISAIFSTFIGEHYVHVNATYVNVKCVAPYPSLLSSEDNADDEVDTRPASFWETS

| IC50 (RON (human)) [nM] | IC50 (MET (human)) [nM] | SMILES |
| --- | --- | --- |
| ≤ 100 | ≤ 100 | Cc1cccc2nc(-c3cc(-c4cnn(C5CCNCC5)c4)cnc3N)sc12 [Example 263, 3-(7-Methylbenzothiazol-2-yl)-5-(1-piperidin-4-yl-1H-pyrazol-4-yl)-pyridin-2-ylamine] |
| 100 to 1000 | ≤ 100 | COc1cccc2nc(-c3cc(-c4cnn(C5CCNCC5)c4)cnc3N)sc12 [Example 264, 3-(7-Methoxybenzothiazol-2-yl)-5-(1-piperidin-4-yl-1H-pyrazol-4-yl)-pyridin-2-ylamine] |
| 100 to 1000 | ≤ 100 | Nc1ncc(-c2cnn(C3CCNCC3)c2)cc1-c1nc2c(Br)cccc2s1 [Example 265, 3-(4-Bromobenzothiazol-2-yl)-5-(1-piperidin-4-yl-1H-pyrazol-4-yl)-pyridin-2-ylamine] |
| 1000 to 20000 | 1000 to 20000 | Nc1ncc(-c2cnn(C3CCNCC3)c2)cc1-c1nc2ccc(OC(F)(F)F)cc2s1 [Example 266, 5-(1-Piperidin-4-yl-1H-pyrazol-4-yl)-3-(6-trifluoromethoxybenzothiazol-2-yl)-pyridin-2-ylamine] |
| ≤ 100 | ≤ 100 | N#Cc1ccc2sc(-c3cc(-c4cnn(C5CCNCC5)c4)cnc3N)nc2c1 [Example 267, 2-[2-Amino-5-(1-piperidin-4-yl-1H-pyrazol-4-yl)-pyridin-3-yl]-benzothiazole-5-carbonitrile] |
| 100 to 1000 | 100 to 1000 | N#Cc1ccc2nc(-c3cc(-c4cnn(C5CCNCC5)c4)cnc3N)sc2c1 [Example 268, 2-[2-Amino-5-(1-piperidin-4-yl-1H-pyrazol-4-yl)-pyridin-3-yl]-benzothiazole-6-carbonitrile] |
| 100 to 1000 | 100 to 1000 | Nc1ncc(-c2cnn(C3CCNCC3)c2)cc1-c1nc2c(C(F)(F)F)ccc(F)c2s1 [Example 269, 3-(7-Fluoro-4-trifluoromethylbenzothiazol-2-yl)-5-(1-piperidin-4-yl-1H-pyrazol-4-yl)-pyridin-2-ylamine] |
| 100 to 1000 | 100 to 1000 | Nc1ncc(-c2cnn(C3CCNCC3)c2)cc1-c1nc2cccc(F)c2s1 [Example 270, 3-(7-Fluorobenzothiazol-2-yl)-5-(1-piperidin-4-yl-1H-pyrazol-4-yl)-pyridin-2-ylamine] |
| 100 to 1000 | 100 to 1000 | COc1ccc2sc(-c3cc(-c4cnn(C5CCNCC5)c4)cnc3N)nc2c1 [Example 271, 3-(5-Methoxybenzothiazol-2-yl)-5-(1-piperidin-4-yl-1H-pyrazol-4-yl)-pyridin-2-ylamine] |
| 100 to 1000 | 100 to 1000 | Cc1ccc2sc(-c3cc(-c4cnn(C5CCNCC5)c4)cnc3N)nc2c1 [Example 272, 3-(5-Methylbenzothiazol-2-yl)-5-(1-piperidin-4-yl-1H-pyrazol-4-yl)-pyridin-2-ylamine] |
| ≤ 100 | ≤ 100 | Nc1ncc(-c2cnn(C3CCNCC3)c2)cc1-c1nc2cccc(Br)c2s1 [Example 273, 3-(7-Bromobenzothiazol-2-yl)-5-(1-piperidin-4-yl-1H-pyrazol-4-yl)-pyridin-2-ylamine] |
| 100 to 1000 | ≤ 100 | Nc1ncc(-c2cnn(C3CCNCC3)c2)cc1-c1nc2c(F)c(F)ccc2s1 [Example 274, 3-(4,5-Difluorobenzothiazol-2-yl)-5-(1-piperidin-4-yl-1H-pyrazol-4-yl)-pyridin-2-ylamine] |
| 100 to 1000 | 100 to 1000 | N#Cc1cccc2nc(-c3cc(-c4cnn(C5CCNCC5)c4)cnc3N)sc12 [Example 275, 2-[2-Amino-5-(1-piperidin-4-yl-1H-pyrazol-4-yl)-pyridin-3-yl]-benzothiazole-7-carbonitrile] |
| 100 to 1000 | 100 to 1000 | Nc1ncc(-c2cnn(C3CCNCC3)c2)cc1-c1nc2cc(Br)ccc2s1 [Example 276, 3-(5-Bromobenzothiazol-2-yl)-5-(1-piperidin-4-yl-1H-pyrazol-4-yl)-pyridin-2-ylamine] |
| 100 to 1000 | 100 to 1000 | COc1cccc2sc(-c3cc(-c4cnn(C5CCNCC5)c4)cnc3N)nc12 [Example 277, 3-(4-Methoxybenzothiazol-2-yl)-5-(1-piperidin-4-yl-1H-pyrazol-4-yl)-pyridin-2-ylamine] |
| 100 to 1000 | ≤ 100 | Nc1ncc(-c2cnn(C3CCNCC3)c2)cc1-c1nc2c(Cl)cccc2s1 [Example 278, 3-(4-Chlorobenzothiazol-2-yl)-5-(1-piperidin-4-yl-1H-pyrazol-4-yl)-pyridin-2-ylamine] |
| 100 to 1000 | 100 to 1000 | Nc1ncc(-c2cnn(C3CCNCC3)c2)cc1-c1nc2ccc(C(F)(F)F)cc2s1 [Example 279, 5-(1-Piperidin-4-yl-1H-pyrazol-4-yl)-3-(6-trifluoromethylbenzothiazol-2-yl)-pyridin-2-ylamine] |

| IC50 (RON (human)) [nM] | IC50 (MET (human)) [nM] | SMILES |
| --- | --- | --- |
| 100 to 1000 | 100 to 1000 | Cc1ccc(C(F)(F)F)c2nc(-c3cc(-c4cnn(C5CCNCC5)c4)cnc3N)sc12 [Example 280, 3-(7-Methyl-4-trifluoromethylbenzothiazol-2-yl)-5-(1-piperidin-4-yl-1H-pyrazol-4-yl)-pyridin-2-ylamine] |
| 100 to 1000 | 100 to 1000 | Nc1ncc(-c2cnn(C3CCNCC3)c2)cc1-c1nc2cc(OC(F)(F)F)ccc2s1 [Example 281, 5-(1-Piperidin-4-yl-1H-pyrazol-4-yl)-3-(5-trifluoromethoxybenzothiazol-2-yl)-pyridin-2-ylamine] |
| 100 to 1000 | 100 to 1000 | Nc1ncc(-c2cnn(C3CCNCC3)c2)cc1-c1nc2c(C(F)(F)F)ccc(Cl)c2s1 [Example 282, 3-(7-Chloro-4-trifluoromethylbenzothiazol-2-yl)-5-(1-piperidin-4-yl-1H-pyrazol-4-yl)-pyridin-2-ylamine] |
| ≤ 100 | ≤ 100 | Nc1ncc(-c2cnn(C3CCNCC3)c2)cc1-c1nc2cc(F)ccc2s1 [Example 283, 3-(5-Fluorobenzothiazol-2-yl)-5-(1-piperidin-4-yl-1H-pyrazol-4-yl)-pyridin-2-ylamine] |
| 100 to 1000 | 100 to 1000 | N#Cc1cccc2sc(-c3cc(-c4cnn(C5CCNCC5)c4)cnc3N)nc12 [Example 284, 2-[2-Amino-5-(1-piperidin-4-yl-1H-pyrazol-4-yl)-pyridin-3-yl]-benzothiazole-4-carbonitrile] |
| 1000 to 20000 | 100 to 1000 | Nc1ncc(-c2cnn(C3CCNCC3)c2)cc1-c1nc2c(OC(F)(F)F)cccc2s1 [Example 285, 5-(1-Piperidin-4-yl-1H-pyrazol-4-yl)-3-(4-trifluoromethoxybenzothiazol-2-yl)-pyridin-2-ylamine] |
| 100 to 1000 | 100 to 1000 | Nc1ncc(-c2cnn(C3CCNCC3)c2)cc1-c1nc2c(C(F)(F)F)c(F)ccc2s1 [Example 286, 3-(5-Fluoro-4-trifluoromethylbenzothiazol-2-yl)-5-(1-piperidin-4-yl-1H-pyrazol-4-yl)-pyridin-2-ylamine] |
| 100 to 1000 | 1000 to 20000 | Nc1ncc(-c2cnn(C3CCNCC3)c2)cc1-c1nc2c(Br)cc(OC(F)(F)F)cc2s1 [Example 287, 3-(4-Bromo-6-trifluoromethoxybenzothiazol-2-yl)-5-(1-piperidin-4-yl-1H-pyrazol-4-yl)-pyridin-2-ylamine] |
| > 20000 | 100 to 1000 | Nc1ncc(-c2cnn(CCC(=O)N3CCCCC3)c2)cc1-c1nc2ccccc2s1 [Example 288, 3-[4-(6-Amino-5-benzothiazol-2-ylpyridin-3-yl)-pyrazol-1-yl]-1-piperidin-1-ylpropan-1-one] |
| 1000 to 20000 | 100 to 1000 | Nc1ncc(-c2cnn(CCC(=O)N3CCC(O)C3)c2)cc1-c1nc2ccccc2s1 (centres unmarked) [Example 289, 3-[4-(6-Amino-5-benzothiazol-2-ylpyridin-3-yl)-pyrazol-1-yl]-1-(3-hydroxypyrrolidin-1-yl)-propan-1-one] |
| 1000 to 20000 | 100 to 1000 | Nc1ncc(-c2cnn(CCC(=O)N3CCC(O)CC3)c2)cc1-c1nc2ccccc2s1 [Example 290, 3-[4-(6-Amino-5-benzothiazol-2-ylpyridin-3-yl)-pyrazol-1-yl]-1-(4-hydroxypiperidin-1-yl)-propan-1-one] |
| > 20000 | 1000 to 20000 | Nc1ncc(-c2cnn(CCC(=O)N3CCOCC3)c2)cc1-c1nc2ccccc2s1 [Example 291, 3-[4-(6-Amino-5-benzothiazol-2-ylpyridin-3-yl)-pyrazol-1-yl]-1-morpholin-4-ylpropan-1-one] |
| > 20000 | 1000 to 20000 | COCCNC(=O)CCn1cc(-c2cnc(N)c(-c3nc4ccccc4s3)c2)cn1 [Example 292, 3-[4-(6-Amino-5-benzothiazol-2-ylpyridin-3-yl)-pyrazol-1-yl]-N-(2-methoxyethyl)-propionamide] |
| 1000 to 20000 | 100 to 1000 | Nc1ncc(-c2cnn(CCC(=O)NCCO)c2)cc1-c1nc2ccccc2s1 [Example 293, 3-[4-(6-Amino-5-benzothiazol-2-ylpyridin-3-yl)-pyrazol-1-yl]-N-(2-hydroxyethyl)-propionamide] |
| 1000 to 20000 | 1000 to 20000 | COCCN(CCOC)C(=O)CCn1cc(-c2cnc(N)c(-c3nc4ccccc4s3)c2)cn1 [Example 294, 3-[4-(6-Amino-5-benzothiazol-2-ylpyridin-3-yl)-pyrazol-1-yl]-N,N-bis-(2-methoxyethyl)-propionamide] |
| 1000 to 20000 | 100 to 1000 | CN(C)C(=O)CCn1cc(-c2cnc(N)c(-c3nc4ccccc4s3)c2)cn1 [Example 295, 3-[4-(6-Amino-5-benzothiazol-2-ylpyridin-3-yl)-pyrazol-1-yl]-N,N-dimethylpropionamide] |
| 1000 to 20000 | 1000 to 20000 | CNC(=O)CCn1cc(-c2cnc(N)c(-c3nc4ccccc4s3)c2)cn1 [Example 296, 3-[4-(6-Amino-5-benzothiazol-2-ylpyridin-3-yl)-pyrazol-1-yl]-N-methylpropionamide] |
